According to patent US10017492B2 (KANGPU BIOPHARMACEUTICALS, LTD., priority 2014, dated 2018):
Like-named read-outs stand apart in the source and are kept apart here.

Legend:
[1] = test system: Rec-1 cells (Mantle cell lymphoma cells); experiment: CTG cell proliferation assay, Rec-1 cells; format: cell-based; conditions: Homo sapiens, Rec1, 72-120 hours, CellTiter-Glo, read-out: IC50 Value of Rec-1 Inhibition
Protocol: (§1) CTG Cell Proliferation Assay
(§2) Rec-1 cells (Mantle cell lymphoma cells) (ATCC, catalog number CRL-3004), Namalwa.CSN/70 cells (Burkitt lymphoma cells) (DSMZ, catalog number ACC-70), and WSU-DLCL-2 cells (diffuse large B cell lymphoma cells) (DSMZ, catalog number ACC-575) were seeded at (5-15)×10^3 per well to a 96-well plate with transparent bottom and white wall (Corning, catalog number CLS3903) containing specific medium. The plate was placed in an incubator and incubated for 24 hours at 37° C. under 5% CO2. Compounds were prepared as 150 mM stock solutions with DMSO (Sigma, catalog number 276855), and were diluted with the medium to the desired concentration (the final concentration of DMSO was 0.2%) and then were added to each well, incubated in an incubator for 72-120 hours at 37° C. under 5% CO2. Then, 100 μl CellTiter-Glo® cell activity assay reagent (Promega, catalog number G7570) was added to each well. Mixing proceeded for 10 minutes on a shaker to induce cytolysis. The 96-well plate was placed at room temperature for 10 minutes to make the luminous signal stable. A white base film was pasted at the bottom of the culture plate. EnSpire was used to test the plate.

[2] = test system: Namalwa.CSN/70 cells (Burkitt lymphoma cells); experiment: CTG cell proliferation assay, Namalwa.CSN/70 cells; format: cell-based; conditions: 72-120 hours, CellTiter-Glo, read-out: IC50 Value of Namalwa.CSN/70 Inhibition
Protocol: as §1, §2

[3] = test system: MM.1S cells (myeloma cells); experiment: Cell proliferation assay (MTS), MM.1S myeloma cells; format: cell-based; conditions: Homo sapiens, MM1.S, 72 hours, read-out: IC50 values of MMIS Inhibition
Protocol: MM.1S cells (myeloma cells) (ATCC, catalog number CRL-2974) were seeded at 1.8×10^3 per well to a 96-well culture plate containing […] (Gibco, catalog number A10491-01), and were incubated in an incubator for 24 hours at 37° C. under 5% CO2. Compounds were prepared as 20 mM stock solutions with DMSO (Sigma, catalog number D2650), and were diluted with the medium to the desired concentration (the final concentration of DMSO was 0.5%) and then were added to each well, incubated in an incubator for 72 hours at 37° C. under 5% CO2. Then, 20 μL MTS (Promega, catalog number G3581) was added to each well, and further incubated for 1-4 hours in an incubator at 37° C. under 5% CO2. OD490 nm was detected with OD650 nm as reference. The control, a solution containing 0.5% DMSO medium, was as 0% inhibition. GraphPad Prism 5 was used, slope was allowed to change to make the dose-effect curve and IC50 values were calculated, shown in table 2 for details.

[4] = test system: WSU-DLCL-2 cells (diffuse large B cell lymphoma cells); experiment: CTG cell proliferation assay, WSU-DLCL-2 cells; format: cell-based; conditions: 72-120 hours, CellTiter-Glo, read-out: IC50 Value of WSU-DLCL2 Inhibition
Protocol: as §1, §2

TNF-α = TNF-α activity inhibiting assay (LPS-stimulated peripheral blood, ELISA); format: cell-based, human; conditions: Homo sapiens, compound 100 nM, diluted peripheral blood of healthy volunteers, LPS 10 ng/mL, 6 hours, read-out: Inhibitory Rate on TNF-α (%)
Protocol: TNF-α Activity Inhibiting Assay
Peripheral blood from healthy volunteers was collected and collected with EDTA anticoagulant tubes. After being diluted 5-fold with 1640 medium (Gibco, catalog number 11875-093, USA), the blood was added to 96-well cell culture plates (Costar, catalog number 3599, USA) and then treated with 10 μL solution of the compound of general formula (I) of the present invention in DMSO (Sigma, catalog number D2650, USA). The final concentration of the compound was 100 nM, and the final concentration of DMSO was 0.2%. After incubation for 60 minutes in an incubator at 37° C. under 5% CO2, 10 μL LPS (Sigma, catalog number L-2880, USA) was added to the reaction system, and the final concentration was 10 ng/mL. After further culturing for 6 hours in the incubator at 37° C. under 5% CO2, the supernatant was collected. The content of TNF-α was determined by ELISA (BD Biosciences, catalog number 555212, USA). Absorbance was detected at OD450 nm with a microplate reader, with OD 650 nm as reference. The control, a solution containing 0.2% DMSO medium, was as 0% inhibition. Raw data and standard curves were recorded. The four-parameter drug inhibition curve was plotted by XL-fit software and the inhibition rate of each compound was calculated, as shown in Table 1.

[5] = Homo sapiens, WSUDLCL2, WSU-DLCL-2 cells

For `COc1ccc(F)c(CNc2cccc3c2CN(C2CCC(=O)NC2=O)C3=O)c1` (stereo not shown) [Compound A195, 3-(4-((2-fluoro-5-methoxybenzyl)amino)-1-oxoisoindolin-2-yl)piperidine-2,6-dione], the IC50 [1] was < 100 nM, the IC50 [2] was > 300000 nM and the IC50 [3] was < 300 nM. For the same molecule, the IC50 [4, 5] was > 300000 nM.

With `COc1ccc(COc2cccc3c2CN(C2CCC(=O)NC2=O)C3=O)c(F)c1` (stereo not shown) [Compound A329, 3-(4-((2-fluoro-4-methoxybenzyl)oxy)-1-oxoisoindolin-2-yl)piperidine-2,6-dione] the inhibition at 0.1 µM (TNF-α) was ≥ 50%, the IC50 [1] was < 100 nM and the IC50 [2] was 401 to 300000 nM. For the same molecule, the IC50 [3] was < 300 nM and the IC50 [4, 5] was > 300000 nM.

In the case of `COc1cccc(COc2cccc3c2CN(C2CCC(=O)NC2=O)C3=O)c1F` (stereo not shown) [Compound A334, 3-(4-((2-fluoro-3-methoxybenzyl)oxy)-1-oxoisoindolin-2-yl)piperidine-2,6-dione], the inhibition at 0.1 µM (TNF-α) is reported as ≥ 50%, the IC50 [1] is reported as < 100 nM and the IC50 [2] is reported as > 300000 nM. The IC50 [3] was < 300 nM and the IC50 [4, 5] was > 300000 nM.

With `[2H][C@]1(N2Cc3c(NCc4ccc(OC)cc4F)cccc3C2=O)CCC(=O)NC1=O` [Compound A356, (S)-3-deuterium-3-(4-((2-fluoro-4-methoxybenzyl)amino)-1-oxoisoindolin-2-yl)piperidine-2,6-dione] the inhibition at 0.1 µM (TNF-α) was ≥ 50%, the IC50 [1] was < 100 nM and the IC50 [2] was 100 to 400 nM. The IC50 [3] was < 300 nM and the IC50 [4, 5] was 401 to 300000 nM.

`[2H][C@]1(N2Cc3c(NCc4cccc(OC)c4F)cccc3C2=O)CCC(=O)NC1=O` [Compound A357, (S)-3-deuterium-3-(4-((2-fluoro-3-methoxybenzyl)amino)-1-oxoisoindolin-2-yl)piperidine-2,6-dione] was tested, and the inhibition at 0.1 µM (TNF-α) was ≥ 50%, the IC50 [1] was < 100 nM and the IC50 [2] was 100 to 400 nM. For the same molecule, the IC50 [3] was < 300 nM and the IC50 [4, 5] was 401 to 300000 nM.

In the case of `O=C1CCC(N2Cc3c(NCc4cccc(CN5CCOCC5)c4F)cccc3C2=O)C(=O)N1` (stereo not shown) [Compound A381, 3-(4-((2-fluoro-3-(morpholinomethyl)benzyl)amino)-1-oxoisoindolin-2-yl)piperidine-2,6-dione], the inhibition at 0.1 µM (TNF-α) is reported as ≥ 50%, the IC50 [1] is reported as < 100 nM and the IC50 [2] is reported as > 300000 nM. For the same molecule, the IC50 [3] was < 300 nM and the IC50 [4, 5] was 401 to 300000 nM.

With `O=C1CCC(N2Cc3c(NCc4ccc(CN5CCOCC5)cc4F)cccc3C2=O)C(=O)N1` (stereo not shown) [Compound A382] the inhibition at 0.1 µM (TNF-α) was ≥ 50%, the IC50 [1] was < 100 nM and the IC50 [2] was > 300000 nM. The IC50 [3] was < 300 nM and the IC50 [4, 5] was < 100 nM.

`O=C1CCC(N2Cc3c(NCc4cc(CN5CCOCC5)ccc4F)cccc3C2=O)C(=O)N1` (stereo not shown) [Compound A383, 3-(4-((2-fluoro-5-(morpholinomethyl)benzyl)amino)-1-oxoisoindolin-2-yl)piperidine-2,6-dione] was tested, and the inhibition at 0.1 µM (TNF-α) was ≥ 50%, the IC50 [1] was 100 to 400 nM and the IC50 [2] was > 300000 nM. The IC50 [3] was < 300 nM and the IC50 [4, 5] was 401 to 300000 nM.

With `O=C1CCC(N2Cc3c(OCc4ccc(CN5CCOCC5)cc4F)cccc3C2=O)C(=O)N1` (stereo not shown) [Compound A386, 3-(4-((2-fluoro-4-(morpholinomethyl)benzyl)oxy)-1-oxoisoindolin-2-yl)piperidine-2,6-dione] the inhibition at 0.1 µM (TNF-α) was ≥ 50%, the IC50 [1] was < 100 nM and the IC50 [2] was > 300000 nM. For the same molecule, the IC50 [3] was < 300 nM and the IC50 [4, 5] was < 100 nM.

With `O=C1CCC(N2Cc3c(OCc4cccc(CN5CCOCC5)c4F)cccc3C2=O)C(=O)N1` (stereo not shown) [Compound A399, 3-(4-((2-fluoro-3-(morpholinomethyl)benzyl)oxy)-1-oxoisoindolin-2-yl)piperidine-2,6-dione] the inhibition at 0.1 µM (TNF-α) was ≥ 50%, the IC50 [1] was < 100 nM and the IC50 [2] was > 300000 nM. For the same molecule, the IC50 [3] was < 300 nM and the IC50 [4, 5] was 401 to 300000 nM.

For `[2H][C@]1(N2Cc3c(NCc4cccc(CN5CCOCC5)c4F)cccc3C2=O)CCC(=O)NC1=O` [Compound A400, (S)-3-deuterium-3-(4-((2-fluoro-3-(morpholinomethyl)benzyl)amino)-1-oxoisoindolin-2-yl)piperidine-2,6-dione], the inhibition at 0.1 µM (TNF-α) was ≥ 50%, the IC50 [1] was 100 to 400 nM and the IC50 [2] was > 300000 nM. For the same molecule, the IC50 [3] was < 300 nM and the IC50 [4, 5] was 401 to 300000 nM.

In the case of `[2H][C@]1(N2Cc3c(NCc4ccc(CN5CCOCC5)cc4F)cccc3C2=O)CCC(=O)NC1=O` [Compound A402], the inhibition at 0.1 µM (TNF-α) is reported as ≥ 50%, the IC50 [1] is reported as < 100 nM and the IC50 [2] is reported as > 300000 nM. For the same molecule, the IC50 [3] was < 300 nM and the IC50 [4, 5] was < 100 nM.

`[2H][C@]1(N2Cc3c(OCc4cc(CN5CCOCC5)ccc4F)cccc3C2=O)CCC(=O)NC1=O` [Compound A403, (S)-3-deuterium-3-(4-((2-fluoro-5-(morpholinomethyl)benzyl)oxy)-1-oxoisoindolin-2-yl)piperidine-2,6-dione] was tested, and the inhibition at 0.1 µM (TNF-α) was ≥ 50%, the IC50 [1] was < 100 nM and the IC50 [2] was > 300000 nM. For the same molecule, the IC50 [3] was < 300 nM and the IC50 [4, 5] was 401 to 300000 nM.

With `[2H][C@]1(N2Cc3c(OCc4cccc(CN5CCOCC5)c4F)cccc3C2=O)CCC(=O)NC1=O` [Compound A404, (S)-3-deuterium-3-(4-((2-fluoro-3-(morpholinomethyl)benzyl)oxy)-1-oxoisoindolin-2-yl)piperidine-2,6-dione] the inhibition at 0.1 µM (TNF-α) was ≥ 50%, the IC50 [1] was < 100 nM and the IC50 [2] was > 300000 nM. The IC50 [3] was < 300 nM and the IC50 [4, 5] was 401 to 300000 nM.

In the case of `[2H][C@]1(N2Cc3c(OCc4ccc(CN5CCOCC5)cc4F)cccc3C2=O)CCC(=O)NC1=O` [Compound A406, (S)-3-deuterium-3-(4-((2-fluoro-4-(morpholinomethyl)benzyl)oxy)-1-oxoisoindolin-2-yl)piperidine-2,6-dione], the inhibition at 0.1 µM (TNF-α) is reported as ≥ 50%, the IC50 [1] is reported as < 100 nM and the IC50 [2] is reported as > 300000 nM. For the same molecule, the IC50 [3] was < 300 nM and the IC50 [4, 5] was < 100 nM.

For `O=C1CCC(N2Cc3c(OCc4ccc(CN5CCOCC5)cc4F)cc(F)cc3C2=O)C(=O)N1` (stereo not shown) [Compound A407], the inhibition at 0.1 µM (TNF-α) was < 50%, the IC50 [1] was < 100 nM and the IC50 [2] was > 300000 nM. The IC50 [3] was < 300 nM and the IC50 [4, 5] was 401 to 300000 nM.

For `[2H]C1(N2Cc3c(OCc4ccc(CN5CC(C)OC(C)C5)cc4F)cccc3C2=O)CCC(=O)NC1=O` (stereo not shown) [Compound A427, 3-deuterium-3-(4-((4-((2,6-dimethylmorpholino)methyl)-2-fluorobenzyl)oxy)-1-oxoisoindolin-2-yl)piperidine-2,6-dione], the inhibition at 0.1 µM (TNF-α) was ≥ 50%, the IC50 [1] was < 100 nM and the IC50 [2] was > 300000 nM. For the same molecule, the IC50 [3] was < 300 nM and the IC50 ([4]; WSU-DLCL-2 cells) was 401 to 300000 nM.

For `Nc1cc(F)cc2c1CN(C1CCC(=O)NC1=O)C2=O` (stereo not shown) [Compound I-28, 3-(4-amino-6-fluoro-1-oxoisoindolin-2-yl)piperidine-2,6-dione], the inhibition at 0.1 µM (TNF-α) was > 50%, the IC50 [1] was < 100 nM and the IC50 [2] was > 300000 nM. For the same molecule, the IC50 [3] was < 300 nM and the IC50 [4, 5] was > 300000 nM.

`Nc1cc(F)cc2c1CN([C@H]1CCC(=O)NC1=O)C2=O` [Compound I-29] was tested, and the inhibition at 0.1 µM (TNF-α) was > 50%, the IC50 [1] was < 100 nM and the IC50 [2] was > 300000 nM. The IC50 [3] was < 300 nM and the IC50 [4, 5] was > 300000 nM.

With `Nc1cc(F)cc2c1CN([C@@H]1CCC(=O)NC1=O)C2=O` [Compound I-30] the IC50 [1] was < 100 nM, the IC50 [2] was > 300000 nM and the IC50 [3] was < 300 nM. For the same molecule, the IC50 [4, 5] was > 300000 nM.

For `[2H][C@]1(N2Cc3c(N)cc(F)cc3C2=O)CCC(=O)NC1=O` [Compound I-31], the inhibition at 0.1 µM (TNF-α) was > 50%, the IC50 [1] was < 100 nM and the IC50 [2] was > 300000 nM. For the same molecule, the IC50 [3] was < 300 nM and the IC50 [4, 5] was 401 to 300000 nM.
